# Paper PMC9695592, “Phenotypic Evaluation of Nucleoside Analogues against Trypanosoma cruzi Infection: In Vitro and In Vivo Approaches” (Molecules, 2022)
# “Also recorded” adds a separate entry of the source.
# Legend:
# [1] = test system: T. cruzi (Tulahuen strain) in L929; test: Washout assay in T. cruzi-infected L929 cultures (Tulahuen strain); assay type: cell-based, Trypanosoma cruzi; conditions: 10 μM for seven days, then seven days drug-free medium; light microscopy
# Procedure: To explore in vitro parasitic exhaustion, T. cruzi-infected L929 cultures were incubated for seven days with the compounds at 10 μM. Then, fresh drug-free medium was added and replaced every 48 h. After seven days of incubation, the number of released parasites into the supernatant was quantified by light microscopy.
# T. cruzi-infected L929 cultures (using the Tulahuen-β gal strain) were exposed or not to 10 µM of each nucleoside derivative, and the RPMI culture medium (containing the tested compounds) replaced every 48 h. After seven days of incubation, the cultures were rinsed with 0.1 M phosphate buffered saline (PBS), and drug-free culture medium was added for another seven days of incubation, replacing the drug-free medium every 48 h. Parasites released into the supernatant of the cell cultures were quantified using light microscopy, and the parasite burden into the infected cultures was analyzed by adding the substrate CPRG (chlorophenol red ß-D-galactopyranoside) followed by spectrophotometric measurements at 570 nm. The results were expressed as percentage of reduction in parasite growth compared to untreated cells, and EC50 values were calculated. Bz was used as a positive control. The data results from two independent experiments done in at least duplicate.
# [2] = test system: intracellular forms of T. cruzi; set-up: method as in PMID 20428688; conditions: read-out: EC90 value of Bz against the intracellular forms of T. cruzi; cited from earlier work
Compound,parasites released into the supernatant after washout [1],EC90 [2]
"Nc1ncnc2c1c(-c1ccc(Cl)c(F)c1)cn2[C@@H]1O[C@H](CO)[C@@H](O)[C@H]1O [FH10714, 7-(3-fluoro,4-chlorophenyl)tubercidin]",sterilized the infected cultures; also recorded: cleared the parasitism; also recorded: eliminated the parasitism,
"O=C(Cn1ccnc1[N+](=O)[O-])NCc1ccccc1 [Bz, Benznidazole, reference compound]",,10 µM
